Experimental data published in patent US20220275371A1, “USE OF RAB7 GTPASE (RAB7) INHIBITORS IN ENHANCING PERMEABILITY OF THE BLOOD BRAIN BARRIER (BBB)” (Children's Medical Center Corporation, priority 2019, published 2022).
Where a name gives a salt, the structure may show the parent alone.

Experiments:
Format in all cases: cell-based, human
[1] = system: brain endothelial monolayer; assay: Static Transwell BBB model, transport of Gaussia luciferase-labeled Br-EVs; conditions: 30 min pretreatment, then Br-EVs 2 hours at 37° C.
Procedure: To verify that the source of the detected signal in the abluminal chamber was the luciferase associated with intact EVs as opposed to free luciferase, the media from the lower chamber was ultracentrifuged on an iodixanol OPTIPREP™ density gradient. As a positive control, Gaussia luciferase-labeled Br-EVs were added directly to the top of a gradient for ultracentrifugation.
To evaluate the effect of temperature, filters were incubated at either 4° C. or 37° C. To evaluate the effect of endocytosis, filters were pretreated with Dynasore hydrate (Millipore Sigma, Cat #D7693) for 30 minutes prior to adding the EVs and then incubated at 37° C. The media from the lower chamber was collected after 2 hours and luminescence intensity was measured as described before. […] After 4 hours of ultracentrifugation, different density fractions were isolated and luminescence intensity was measured for each fraction. […] After 2 hours of incubation, the permeability of the filters to 10 KDa ALEXA FLUOR™ 647 Dextran and 70 KDa FITC-dextran was measured as described above.

astrocytes = assay: TdTom-EV uptake by astrocytes with endocytosis inhibitors (flow cytometry); conditions: 30 min pretreatment: chlorpromazine 20 μM, EIPA 50 μM, filipin III 10 μM, ML141 100 μM, CAS 1177865-17-6 10 μM; 3 hours with EVs
Excerpt: To elucidate the mechanisms underlying the uptake of breast cancer-derived EVs by astrocytes, the possibility of the involvement of specific endocytosis mechanism(s) in this uptake was explored. Endocytic pathways such as macropinocytosis, clathrin-dependent and caveolin-dependent endocytosis have been commonly reported to be involved in the uptake of EVs by different cell types^16.
Next, the role of clathrin-caveolin-independent pathways in EV uptake was explored, focusing on rac1 and Cdc42, two major players in this process^17.
To evaluate the uptake of EVs by astrocytes for endocytosis inhibition studies, astrocytes were treated with chlorpromazine hydrochloride (Millipore Sigma, Cat #C8138, 20 μM), 5-(N-Ethyl-N-isopropyl) amiloride (EIPA) (50 μM, Tocris, Cat #3378), and filipin III (10 μM, Millipore Sigma, Cat #F4767), CDC42/Rac1 inhibitor, ML141 (100 μM, Millipore Sigma, Cat #217708), and rac1 inhibitor, CAS 1177865-17-6 (10 μM, Millipore Sigma, Cat #553502) for 30 min.

brain endothelial cells = assay: TdTom-Br-EV uptake by brain endothelial cells with endocytosis inhibitors (flow cytometry); conditions: 30 min pretreatment: chlorpromazine 20 μM, ML141 100 μM, EIPA 100 μM, cytochalasin D 500 nM, filipin III 10 μM; 3 hours with EVs
Excerpt: The mechanistic details of Br-EV transport was further explored through brain endothelial cells by focusing on the three major steps of transcytosis: 1) endocytosis through the apical (luminal) membrane of brain endothelial cells, 2) transfer through the endocytic pathway, and 3) release into the extracellular environment from the basolateral (abluminal) membrane. To evaluate the mechanism(s) of uptake, brain endothelial cells were pretreated with chemical inhibitors of the different endocytosis pathways and measured the uptake of TdTom-Br-EVs via flow cytometry.
To evaluate the uptake of EVs by brain ECs, astrocytes and pericytes, cells grown to confluence in 96-well plates were incubated with 2×10^9 particle/well of tdTomato P- and Br-EVs. After 2 hours of incubation, cells were washed for 3 times and were fixed for imaging. Images from four different fields were taken using a Zeiss Fluorescent microscope and the level of fluorescence intensity was analyzed using the ImageJ software. To eliminate the confounding effect of cell size on the uptake level, fluorescent intensity for tdTom-EVs was measured per unit of cell surface area. For endocytosis inhibition studies, brain ECs cultured in 12-well plates were treated with chlorpromazine hydrochloride (Millipore Sigma, Cat #C8138, 20 μM), ML141 (100 μM, Millipore Sigma, Cat #217708), 5-(N-Ethyl-N-isopropyl) amiloride (EIPA) (100 μM, Tocris, Cat #3378), cytochalasin D (500 nM, Tocris, Cat #1233), and filipin III (10 μM, Millipore Sigma, Cat #F4767) for 30 minutes prior to addition of TdTom-Br-EVs (10^10 particle/well). Following 3 hours of incubation with EVs, cells were washed and EV uptake was measured by flow cytometry using a BD FACSCalibur flow cytometer (BD Biosciences, San Jose, Calif.).

Row | abluminal signal of Br-EV transport [1] | SMILES | uptake of breast cancer-derived EVs by astrocytes (astrocytes) | uptake of Br-EVs by brain endothelial cells (brain endothelial cells)
1 | dose-dependent decrease | O=C(N/N=C/c1ccc(O)c(O)c1)c1cc2ccccc2cc1O [Dynasore] |  | 
2 |  | CCN(CC)CCCC(C)Nc1nc(C)cc(Nc2ccc3nc(C)cc(N)c3c2)n1.Cl.Cl.Cl (centres unmarked) [CAS 1177865-17-6] | no effect | 
3 |  | CN(C)CCCN1c2ccccc2Sc2ccc(Cl)cc21 [chlorpromazine, chlorpromazine hydrochloride] | did not affect | significantly decreased
4 |  | COc1ccc(C2=NN(c3ccc(S(N)(=O)=O)cc3)C(c3ccccc3)C2)cc1 (centres unmarked) [ML141] | significantly decreased | significantly decreased
5 |  | CCCCC[C@@H](O)[C@H]1C(=O)O[C@H](C)[C@@H](O)/C=C/C=C/C=C/C=C/C=C(\C)[C@@H](O)C[C@H](O)C[C@H](O)C[C@H](O)C[C@H](O)C[C@H](O)C[C@@H]1O [Filipin, filipin III] | did not affect | no effect
6 |  | C=C1[C@@H](C)[C@H]2[C@H](Cc3ccccc3)NC(=O)[C@]23[C@H](OC(C)=O)/C=C/[C@@](C)(O)C(=O)[C@@H](C)C/C=C/[C@H]3[C@@H]1O [cytochalasin D] |  | significant decrease
7 |  | CCN(c1nc(N)c(C(=O)N=C(N)N)nc1Cl)C(C)C [EIPA, 5-(N-Ethyl-N-isopropyl) amiloride] | did not affect | significant decrease
